Experiments:
SARS-CoV-2 M^pro [1] = biological target: T1, SARS-CoV-2 M^pro (Severe acute respiratory syndrome coronavirus 2, UniProt P0DTD1); experiment: SARS-CoV-2 M^pro proteolytic activity; type: biochemical
SARS-CoV-2 = experiment: Vero E6-based viral replication assay; type: cell-based
SARS-CoV-2 M^pro [2] = biological target: T1, SARS-CoV-2 M^pro; conditions: cited from earlier work
[3] = system: PDI mutants in which His55 and His399 were replaced; conditions: 10 μM PGHG, 15 min
Protocol: Data represented as mean±SEM.
Di-eosin-GSSG disulfide reductase assay. […] Di-eosin-GSSG cleavage of purified thiol isomerases and PDI domains was monitored in a 96-well fluorescence plate format. PDI, CGXC-PDI variants, ERp5, ERp57, ERp46 and PDI domains were assayed at 50 nM in the presence or absence of the indicated small molecules. The assay included a thiol isomerase assay buffer (39 mM KH2PO4, 61 mM K2HPO4, 2 mM EDTA, 5 M DTT, pH 7.4) and 150 nM of the di-eosin-GSSG probe. The increase in fluorescence was determined for 60 min by excitation at 520 nm and emission at 550 nm in a Synergy Biotek 4. The reduction of 150 nM di-eosin-GSSG by 5 μM DTT in the presence or absence of mentioned small molecule or proteins served as a negative control.

[4] = system: thrombus formation following laser injury of cremaster arterioles; experiment: Laser-injury thrombosis model; type: in vivo, mice
Protocol: Laser-injury thrombosis model. Thrombus formation in response to laser injury was measured as described previously. See Grover S P, et al. J. Thromb. Haemost. 18:3078-85, 2020; Koseoglu S, et al. Arterioscler. Thromb. Vasc. Biol. 33:481-8, 2013; and Matsuura S, et al. Arterioscler. Thromb. Vasc. Biol. 40:e262-e72, 2020. Briefly, cremaster muscle arterioles were injured using a MicroPoint Laser System (Andor, Belfast, UK). Platelet and fibrin accumulation were measured by infusion of Dylight 649-labeled anti-platelet (CD42b; 0.1 μg/g body weight; Emfret Analytics) and DyLight 488-labeled anti-fibrin (clone 59D8; 0.3 μg/g) antibodies through a jugular vein catheter. Data were acquired before and after laser injury using the brightfield, 488/520 nm, and 640/670 nm channels. Images were captured for 250 seconds at 2 frames/s using a CCD camera (ORCA Flash 4.0, Hamamatsu Photonics, Japan) on an AX-70 fluorescence microscope (Olympus, Japan). Data were analyzed using Slidebook 6.0 (Intelligent Imaging Innovations). Data from 16 to 30 thrombi were used to determine the median value of the integrated fluorescence intensity to account for variability in thrombus formation under any given experimental condition. AUC was calculated for individual thrombi and normalized to injury lengths to evaluate statistical significance. Injury lengths were determined as previously described in Grover S P, et al. J. Thromb. Haemost. 18:3078-85, 2020.
The differences in platelet accumulation and fibrin formation were not secondary to differences in the extent of laser injury since injury size between control and PGHG-treated mice was indistinguishable (FIG. 10E).

ERp72 = biological target: T2, ERp72 (Homo sapiens, UniProt P13667); experiment: Di-eosin-GSSG disulfide reductase assay, ERp72; type: biochemical
T2 construct: recombinant His-tagged full-length ERp5, ERp72; His-tag; made in house; host or cells: Escherichia coli Origami B (DE3)
T2 sequence (P13667 21-645): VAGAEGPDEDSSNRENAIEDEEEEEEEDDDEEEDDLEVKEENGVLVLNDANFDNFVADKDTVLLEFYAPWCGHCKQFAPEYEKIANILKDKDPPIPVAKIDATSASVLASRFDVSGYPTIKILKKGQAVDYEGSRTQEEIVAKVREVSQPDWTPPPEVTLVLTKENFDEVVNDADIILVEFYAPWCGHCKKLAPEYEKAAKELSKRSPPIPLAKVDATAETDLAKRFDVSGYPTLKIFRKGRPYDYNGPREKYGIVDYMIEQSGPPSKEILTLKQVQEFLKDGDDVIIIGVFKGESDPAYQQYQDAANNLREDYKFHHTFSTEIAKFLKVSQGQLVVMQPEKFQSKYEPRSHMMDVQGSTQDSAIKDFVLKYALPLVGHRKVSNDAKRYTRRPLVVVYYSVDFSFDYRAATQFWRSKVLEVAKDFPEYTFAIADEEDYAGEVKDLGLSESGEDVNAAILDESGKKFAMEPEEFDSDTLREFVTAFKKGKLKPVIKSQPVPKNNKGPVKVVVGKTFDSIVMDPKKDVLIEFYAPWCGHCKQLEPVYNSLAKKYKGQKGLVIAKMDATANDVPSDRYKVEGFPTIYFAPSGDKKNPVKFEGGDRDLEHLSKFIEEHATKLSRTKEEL
Text: Recombinant protein purification. Recombinant ‘double-tagged’ (streptavidin-binding protein-tagged and FLAG-tagged) full-length PDI, ERp57, recombinant His-tagged full-length ERp5, ERp72, PDI domain fragments, and PDI mutant were cloned into a pET-15b vector at the NdeI and BamHI sites and transformed into Escherichia coli Origami B (DE3) cells (EMD Chemicals). The recombinant proteins were expressed and isolated by affinity chromatography with complete His-Tag purification resin (Roche Applied Science) or Pierce High-Capacity Streptavidin Agarose beads and purified on a Superdex 200 (GE Healthcare).
Di-eosin-GSSG disulfide reductase assay. […] Any fraction with a fold change >5 was kept.

PDI = biological target: T3, PDI (Homo sapiens, UniProt P07237); experiment: Insulin reductase assay; type: biochemical; conditions: PGHG incubated with PDI for 15 minutes
T3 construct: FLAG; made in house; host or cells: Escherichia coli Origami B (DE3)
T3 sequence (P07237 18-508): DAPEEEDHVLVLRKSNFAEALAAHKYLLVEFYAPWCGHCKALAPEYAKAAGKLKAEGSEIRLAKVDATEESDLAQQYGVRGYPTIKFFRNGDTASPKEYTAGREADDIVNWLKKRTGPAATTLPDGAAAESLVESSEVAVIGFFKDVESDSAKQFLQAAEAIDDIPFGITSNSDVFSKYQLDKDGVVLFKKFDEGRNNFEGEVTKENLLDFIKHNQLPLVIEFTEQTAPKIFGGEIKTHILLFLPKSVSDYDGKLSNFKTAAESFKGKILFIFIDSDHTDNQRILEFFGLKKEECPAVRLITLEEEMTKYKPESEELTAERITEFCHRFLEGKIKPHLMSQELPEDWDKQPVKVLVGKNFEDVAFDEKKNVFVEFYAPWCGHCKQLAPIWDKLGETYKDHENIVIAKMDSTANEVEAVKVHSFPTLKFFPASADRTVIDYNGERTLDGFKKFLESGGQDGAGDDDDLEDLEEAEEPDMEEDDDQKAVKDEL
Protocol: Insulin reductase assay. Insulin was prepared by mixing 12.5 mg/mL insulin in 50 mM Tris-HCl, pH 8. 1 M HCl was carefully added to drop the pH to 2.0 for solution clarification. Once the solution clarifies, 1 M NaOH was added to rapidly adjust the pH back to 8.0. The solution was then adjusted to 1.5 mM (10 mg/mL) with 50 mM Tris-HCl, aliquoted and stored in −20° C. until use. 2× concentrations of thiol isomerases were prepared (final concentrations as indicated in each assay) and mixed with 1.2 mM DTT (final 0.3 mM) and 0.4 mM insulin (final 0.1 mM) using a thiol isomerase activity assay buffer. Insulin precipitation from enzyme-mediated reduction was assayed in 96-well clear bottom plates at 650 nm absorption.

[5] = 25 μg/g PGHG, intraperitoneal injection
[6] = PGHG 25 mg/kg (Example 1, FIG. 1)
[7] = intravenous infusion, 25 μg/g PGHG

O=C(O[C@@H]1[C@@H](O)[C@H](Oc2cc(O)c3c(c2)O[C@H](c2ccccc2)CC3=O)O[C@@H]2COC(=O)c3cc(O)c(O)c(O)c3-c3c(cc(O)c(O)c3O)C(=O)O[C@@H]12)c1cc(O)c(O)c(O)c1 [PGHG, pinocembrin 7-O-(3″-galloyl-4″,6″-(S)-hexahydroxydiphenoyl)-beta-D-glucose]
IC50 (SARS-CoV-2 M^pro [1]): 6.5 µM
IC50 (SARS-CoV-2): 4.9 µM
Modeling shows gallic acid interaction with His41 or Glu166 (SARS-CoV-2 M^pro [2]): His41; Glu166
susceptibility of His55/His399 PDI mutants (Ala, Asp, Arg) [3]: mutants were resistance to PGHG
mean fibrin fluorescence [4, 5]: 33.44±7.53 % of control
mean platelet accumulation [4, 5]: 29.56±9.08 % of control
fibrin formation [4, 6]: 21±3 % of controls
platelet accumulation [4, 6]: 18±6 % of control levels
fibrin formation, fluorescence compared to controls [4, 7]: 21±3.7%
platelet accumulation, fluorescence compared to controls [4, 7]: 18±6.2%
IC50 (ERp72): 7.8 µM
inhibition of PDI in insulin reductase assay (in words) (PDI): low micromolar range

Source: patent publication US20250134853A1, “COMPOUNDS AND METHODS FOR USING GALLOYLATED POLYPHENOLS TO TREAT DISEASES MEDIATED BY THIOL ISOMERASES” (Beth Israel Deaconess Medical Center, Inc., priority 2023, published 2025)
